row,melting point [°C],SMILES
1,70.5 to 71.5,C#Cc1cccc(OCC2=CC=C(CO)SS2)c1
2,82 to 84,CC(=S)NCC1CN(c2ccc(-c3csc(Cn4cncn4)n3)c(F)c2)C(=O)O1 (stereo unspecified)
3,165 to 167,COc1cc2ccccc2cc1N(C)C(=O)N1CCN(c2cc(Cl)cc(Cl)c2)CC1
4,97 to 98,CCOC(=O)COc1cc(C)nc2c(O)cccc12
5,228 to 231,S=C1Nc2ccccc2Cn2cccc21
6,186 to 188,O=C(O)Cc1ccc2c(c1)Cc1ccccc1C(=O)C2
7,99 to 100,C=CC(=O)C1C(=O)N(c2ccc(OC)cc2)C1c1ccccc1Cl (stereo unspecified)
8,191 to 195,CN(CCO)c1nccc(-c2ccncc2)n1
9,119 to 120,CC(=O)Oc1cc(OCC(O)c2ccc3c(c2)C(C)(C)CCC3(C)C)ccc1C(=O)O (stereo unspecified)
10,186 to 187,Cc1cc(=O)c2cc(Oc3ccccc3)c(NS(C)(=O)=O)cc2o1
11,252 to 254,O=[N+]([O-])c1ccc(C=Cc2nc(Cl)c3ccccc3n2)o1
12,105,N#Cc1cnc(Nc2ccc(OCCn3cncn3)cc2)nc1-c1ccccc1
13,160 to 161,CC(=O)Nc1nccc2cc3cccnc3n12
14,192 to 194,Cc1cc(NC(=O)c2ccccc2O)cc(Cl)c1O
15,99 to 101,CN(C(=O)Nc1nc(OCC(F)(F)F)cc(OCC(F)(F)F)n1)c1ccc(CC(F)(F)F)s1
16,106 to 108,COc1ccc([C@@H]2Sc3ccccc3N(CCN(C)C)C(=O)[C@@H]2OC(=O)Nc2ccccc2)cc1 (relative stereo)
17,237 to 238,CC(=O)Nc1nc(CCc2ccc(NC(=O)OC(C)(C)C)cc2)c(C(=O)O)s1
18,98.4,CSc1cc(-c2ccc(Cl)cc2)nc(-c2cccc(Cl)c2)c1
19,168 to 170,CSC[C@H](C)NC(=O)c1c(Cl)cccc1C(=O)Nc1ccc(Cn2c(C)nnc2C(F)(F)F)cc1C

# More lines, now with the values behind:
row,SMILES,melting point [°C]
1,NS(=O)(=O)Oc1ccccc1F,63 to 64
2,CC(=O)OCC1CC2c3cccc4c3C(CC2N(C)C1)CN4C(C)=O (stereo unspecified),172 to 177
3,NCC(O)c1cccc(C(F)(F)F)c1 (stereo unspecified),72
4,CCCc1c(OCC(O)COc2ccc3c(=O)cc(CCC(=O)O)oc3c2CCC)ccc(C(C)=O)c1O (stereo unspecified),79 to 80
5,CC(C)(C)C(=O)OCCN(CCOC(=O)C(C)(C)C)C(=O)COC(=O)C(C)(C)C,51.4
6,CC(C)(C)[C@H]1N(c2ccc(C#N)c3ccccc23)C(=O)[C@@H]2C[C@@H](O)CN21,155 to 157
7,N#CC1CN(c2c(F)cc3c(=O)c(C(=O)O)cn(C4CC4)c3c2F)C1,> 325
8,COc1ccc(C(NCC(C)c2ccccc2)c2cccc(Nc3c(N)c(=O)c3=O)c2)cc1 (stereo unspecified),192 to 194
9,CCCC(=O)COS(=O)(=O)c1ccc(C)cc1,33 to 35
10,CCOc1cc2nc(CCl)nc(Cl)c2cc1OCC,109 to 112
11,CCn1cc(C)c(=S)[nH]c1=O,205 to 206
12,CS(=O)(=O)c1nnc(C(F)F)s1,59
13,CCn1cc(C(=O)O)c(=O)c2cc(Cl)c(N3CCN(C)CC3)cc21,260
14,O=[N+]([O-])C=C(NCCO)NCCO,145 to 146
15,COc1ccc(C(=O)N[C@H](Cc2ccc(C(F)(F)F)cc2)[C@@H](O)c2ccc(F)cc2)cc1 (racemic),192 to 193
16,CCOC(=O)C1=CC(=O)CCC1S(=O)(=O)Nc1ccc(F)cc1Cl (stereo unspecified),128 to 130
17,CC(C)(C)OC(=O)N1CCN(CCC(N)=O)CC1,96 to 98
18,CCOC(=O)NNC(=O)NCCCCl,105 to 106
19,O=[N+]([O-])c1ccc(C=NNC2O[C@H](COCc3ccccc3)[C@@H](OCc3ccccc3)[C@H]2OCc2ccccc2)cc1 (stereo partly specified),93
20,Brc1ccc(OC2CN(C(c3ccccc3)c3ccccc3)C2)cc1,116 to 117
21,CC(=O)OCOC(=O)COC(=C1C(=O)N(C(N)=O)c2cc(Cl)c(F)cc21)c1cccs1,176 to 177
22,CCc1cnc(N2CCN(C(=O)OC(C)(C)C)CC2)nc1,67 to 68

# From a melting point compilation (Tetko et al.; mined from patent text by program, amines drawn as free bases though some values may be those of a salt)
